{"source": "patent EP0351029B1", "about": "“Novel glucose isomerase enzymes and their use” (GENENCOR INTERNATIONAL, INC., priority 1988, dated 1990)", "key": {"[1]": {"target": "T1, Actinoplanes missouriensis glucose isomerase (EcoAmi(DSM) GI), wildtype (WT-GI) (Actinoplanes missouriensis, UniProt P12851)", "T1 construct": "made in house; host or cells: E. coli K514 (pMa5-I / pMc5-I)", "assay": "Catalytic parameters with D-xylose (D-sorbitol dehydrogenase coupled assay) or D-glucose (cysteine-carbazole method) as substrate", "assay_type": "biochemical", "conditions": "35°C, pH 7.5, 10mM MgSO4", "method": "(§1) In the D-Sorbitol Dehydrogenase Coupled Assay, enzymatic determination of D-xylulose was performed at 35°C as previously described (Kersters-Hilderson et al., Enzyme Microb. Technol. 9 (1987) 145) in 50mM triethanolamine, pH 7.5, 10mM MgSO4, and 0.1 M xylose, in the presence of ± 2 x 10^-8 M D-sorbitol dehydrogenase (L-iditol : NAD oxido-reductase, EC 1.1.14), and 0.15 nM NADH, except that the incubation buffer also included 1mM ethylenebis(oxyethylene-nitrilo)tetraacetic acid (EGTA). Glucose isomerase final concentration in this assay was ± 2.5 x 10^-3 mg/ml, and precisely determined as described above.\n(§2) With glucose as a substrate GI activity can be assayed by the measurement of D-fructose produced during the isomerization reaction using the cysteine-carbazole method (CCM) which is based on the reaction of ketosugars with carbazole in acids to yield a purple product (Dische and Borenfreund, 1951).\n(§3) • Spa = specific activity in micromoles of product (D-xylulose or D-fructose) per minute (unit), per mg of enzyme. • Vmax is expressed in units per mg of enzyme. • KM is the Michaelis constant, expressed in mM. • ND = not determined."}, "[2]": {"target": "T2, Actinoplanes missouriensis glucose isomerase (EcoAmi(DSM) GI), mutant G70S;A73S;G74T (Actinoplanes missouriensis, UniProt P12851, A73S/G70S/G74T)", "T2 construct": "made in house; host or cells: E. coli K514 (mutated pMa5-I / pMc5-I)", "T2 sequence (P12851 whole entry G70S/A73S/G74T)": "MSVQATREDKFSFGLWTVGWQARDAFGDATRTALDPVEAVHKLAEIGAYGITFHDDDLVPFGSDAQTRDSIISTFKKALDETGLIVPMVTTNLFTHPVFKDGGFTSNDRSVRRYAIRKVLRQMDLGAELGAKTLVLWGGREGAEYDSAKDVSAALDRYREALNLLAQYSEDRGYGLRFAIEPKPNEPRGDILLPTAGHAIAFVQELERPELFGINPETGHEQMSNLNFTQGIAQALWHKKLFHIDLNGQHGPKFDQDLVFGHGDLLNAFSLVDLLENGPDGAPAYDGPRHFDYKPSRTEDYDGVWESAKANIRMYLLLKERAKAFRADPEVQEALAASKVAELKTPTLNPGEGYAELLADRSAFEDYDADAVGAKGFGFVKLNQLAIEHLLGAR", "assay_type": "biochemical", "conditions": "D-xylose as substrate, coupled assay, 35°C, pH 7.5, 10mM MgSO4", "method": "as §1, §2, §3"}}, "data": [{"molecule": "O=C[C@H](O)[C@@H](O)[C@H](O)CO", "note": "[Xylose, D-xylose]", "values": [{"measurement": "Km", "setting": "[1]", "result": 4.8, "unit": "mM"}, {"measurement": "Vmax (Xylose)", "setting": "[1]", "result": "24.2 units per mg of enzyme"}, {"measurement": "Km (Xylose)", "setting": "[2]", "result": 5.3, "unit": "mM"}, {"measurement": "Vmax (Xylose)", "setting": "[2]", "result": "24.9 units per mg of enzyme"}]}]}
